# According to US4734282A, “Rodenticidal compositions containing 1,4-naphthoquinone derivatives” (priority 1986, dated 1988):
# “And” between values parts separate entries of the source, which are not always exact repeats. Equal values may be shown once. Read-outs that look alike come from different tables or passages of the source.
# Columns and labels:
# [1] = tested on: vitamin K-dependent carboxylation; test: in vitro rat hepatic microsomal vitamin K-dependent carboxylation of endogenous substrate, inhibition by vitamin K antagonists; type: biochemical; conditions: for Slope (% Inhibition/Concentration), mean ± S.D.: slope parameter s of logistic function; for IO (percent inhibition when C = 0), mean: third fit parameter of logistic function
# Protocol: (§1) The procedures for preparation of vitamin K-dependent carboxylase and assay of carboxylation were similar to those described in other laboratories (J. Biol. Chem. 251, 2770-2776; Biochim. Biophys. Acta 499, 181-193). Each animal was studied under both control and inhibitory conditions. The rats were rendered unconscious with nitrogen, the liver was quickly excised and minced in a total volume of 2.0 ml ice cold buffer I (0.25M sucrose, 0.025M imidazole, pH 7.20) per gram of liver. The liver was homogenized using 4 passes of a Teflon pestle (clearance 0.15-0.23 mm; Arthur H. Thomas Co., Philadelphia, Pa.) at 300 rpm. The post-mitochondrial supernatant and microsomal pellet were prepared by a published procedure (J. Biol. Chem. 251, 2770-2776). The microsomal pellet was resuspended in buffer II (0.25 M sucrose, 0.025M imidazole, 0.080M KCl, pH 7.20). This suspension supplied both the enzymes (vitamin K-dependent carboxylase and enzymes for vitamin K biotransformations) and endogenous substrates (precursors of vitamin K-dependent proteins) of interest. Microsomal suspension protein concentration was determined by the method of Bradford (Anal. Biochem. 72, 248-254) as described for Bio-Rad reagent and adjusted to approximately 15 mg/ml in buffer II.
# (§2) Control, blank, and experimental reaction mixtures were made for each experiment. Control and blank reaction mixtures were made up with vitamin K and without vitamin K, respectively. Experimental reaction mixtures contained both vitamin K and a vitamin K antagonist. The control reaction mixture contained 3.00 ml of microsomal suspension, 0.81 ml of buffer II, 1.20 ml of an ATP-generating system (final concentrations: 1 mM ATP, 10 mM phosphocreatine, 2.5 mM Mg[acetate]2 ·4H2 O, 20 μg/ml creatine phosphokinase [52 U/ml]), 0.60 ml of NADH (final concentration 2 mM), 0.30 ml of dithiothreitol (final concentration 7 mM) dissolved in buffer II, 0.060 ml of NaH^14 CO3 (1.0 μCi/μl; added 0.5 min prior to reaction initiation), and at the time of reaction initiation 0.030 ml of vitamin K1 (final concentration 20 μg/ml) diluted in 0.85% sodium chloride solution. This vitamin K concentration is associated with maximal in vitro incorporation of added H^14 CO3 into vitamin K-dependent substrate proteins (J. Biol. Chem. 251, 2770-2776). The blank reaction mixture consisted of the same components except that vitamin K was replaced by an equal volume of isotonic saline. The experimental reaction mixtures were made up in the same way as the control reaction mixtures with the exceptions that: (1) a volume of buffer II was replaced by a volume of buffer II containing an inhibitor of vitamin K-dependent carboxylation, and (2) all individual volumes were two-thirds of those in the control reaction mixtures. […] Chloro-K1 was formulated as an oil-in-water emulsion with Tween 80 (5% v/v final concentration), while chloro-K3 was formulated as a suspension in Tween 80 (5% v/v final concentration) (Molecular Pharmacology 10, 373-380).
# (§3) Reaction mixtures were incubated for 5 minutes at 100 excursions per minute in a reciprocating shaker water bath at 27° . After addition of vitamin K or saline, serial samples (0.45 ml each) were collected from each control and blank reaction tube at 2, 4, 6, 8, 10, 12, 14, 16, 30, 60, 90, and 120 minutes, and from each experimental reaction tube at 2, 4, 6, 8, 10, 12, 14, and 16 minutes. Each 0.45 ml sample was transferred to a tube containing 1 ml of ice-cold 10% TCA. The TCA-precipitated ^14 C-containing protein pellet was then prepared as previously described (J. Biol. Chem. 251, 2770-2776) and radioactivity was determined in an Intertechnique (Plaisir, France) liquid scintillation spectrometer using the external standard method of quench correction.
# [2] = tested on: prothrombin complex activity; test: in vivo prothrombin complex activity (PCA), its degradation and synthesis rate, from prothrombin time; set-up: species or system rat; conditions: for PCA° (steady-state prothrombin complex activity before warfarin) / kd (first-order rate constant for degradation of PCA) / R°Syn (rate of synthesis of PCA): individual pretreated rat; for kd (first-order rate constant for degradation of PCA): after 2 mg/kg i.v. warfarin; for R°Syn (rate of synthesis of PCA): PCA° × kd; for reduction in R°Syn: vs normal rats
# [3] = tested on: vitamin K-dependent carboxylation; test: in vitro vitamin K-dependent carboxylation in liver microsomes of pretreated rats; type: biochemical, rat; conditions: for Normalized P∞ / V/KM (intrinsic formation rate of carboxylated vitamin K-dependent proteins): individual pretreated rat; for V/KM (intrinsic formation rate of carboxylated vitamin K-dependent proteins): liver microsomes about 22 hours after warfarin
# Protocol: as §1, §2
# as §3, with “correction. […]” for “correction.”
# [4] = tested on: prothrombin complex activity; conditions: 2 mg/kg sodium warfarin i.v., approximately 19 hours prior to sacrifice; cited from earlier work
# rats = conditions: cited from earlier work
# [5] = percent inhibition of vitamin K-dependent carboxylation vs concentration, logistic fit per animal, vitamin K1 20 μg/ml, 27°, read-out: IC50 (mean ± S.D.)
# [6] = range among individual rats, read-out: IC50 (range)
smiles,measurement,setting,value
"Oc1c(Cl)c(Cl)nc(Cl)c1Cl [TCP, 2,3,5,6-Tetrachloropyridin-4-ol]",difference between IC50 of most potent (TCP) and least potent (warfarin) compound,[1],"approximately 5,000 fold"
same,IC50,"[1]; as printed in discussion text, read-out: average IC50",1.23 µM
same,IC50,[1]; [5],1.23 ± 0.24 µM
same,"Slope (% Inhibition/Concentration), range",[1]; range among individual rats,0.734-1.02 % Inhibition/Concentration
same,IC50,[1]; [6],0.89 to 1.44 µM
same,"Slope (% Inhibition/Concentration), mean ± S.D.",[1],0.884 ± 0.117 % Inhibition/Concentration
"O=C1c2ccccc2C(=O)C1c1ccccc1 [Phenindione, phenindione]",IC50,[1]; [5],19 ± 11.2 µM
same,"Slope (% Inhibition/Concentration), range",[1]; range among individual rats,0.269-0.963 % Inhibition/Concentration
same,IC50,[1]; [6],7.36 to 30.2 µM
same,"Slope (% Inhibition/Concentration), mean ± S.D.",[1],0.475 ± 0.330 % Inhibition/Concentration
"CCC1(c2ccccc2)C(=O)NC(=O)NC1=O [Phenobarbital, Phenobarbital sodium]",PCA° (steady-state prothrombin complex activity before warfarin),[2],143.1% and 102.7%
same,kd (first-order rate constant for degradation of PCA),[2],4.31e-05 s⁻¹ and 4.77e-05 s⁻¹
same,R°Syn (rate of synthesis of PCA),[2],533 %/day and 423 %/day
same,average increase in PCA° beyond normal rats,[2]; two treated rats vs four normal rats,38%
same,average increase in R°Syn beyond normal rats,[2]; two treated rats vs normal rats,44%
same,Normalized P∞,[3],4.92 dpm ^14 C incorporated/mg prot and 5.86 dpm ^14 C incorporated/mg prot
same,V/KM (intrinsic formation rate of carboxylated vitamin K-dependent proteins),[3],0.1174 min⁻¹ and 0.1586 min⁻¹
"S=C=Nc1cccc2ccccc12 [ANIT, α-naphthylisothiocyanate]",PCA° (steady-state prothrombin complex activity before warfarin),[2],56.1% and 56%
same,kd (first-order rate constant for degradation of PCA),[2],3.19e-05 s⁻¹
same,R°Syn (rate of synthesis of PCA),[2],155 %/day
same,reduction in R°Syn,[2],approximately 53%
same,Normalized P∞,[3],15.59 dpm ^14 C incorporated/mg prot
same,V/KM (intrinsic formation rate of carboxylated vitamin K-dependent proteins),[3],0.1104 min⁻¹
same,increase in normalized P∞,[3]; one treated rat vs normal,approximately 50%
"C/C(=C\CC1=C(Cl)C(=O)c2ccccc2C1=O)CCC[C@H](C)CCC[C@H](C)CCCC(C)C [Chloro-K1, 2-Chloro-3-phytyl-1,4-naphthoquinone]",IC50,[1]; [5],285 ± 89.3 µM
same,"Slope (% Inhibition/Concentration), range",[1]; range among individual rats,0.469-0.898 % Inhibition/Concentration
same,IC50,[1]; [6],171 to 393 µM
same,"Slope (% Inhibition/Concentration), mean ± S.D.",[1],0.634 ± 0.159 % Inhibition/Concentration
"O=C1C(Cl)=CC(=Nc2ccc(O)cc2)C=C1Cl [2,6-DIP, 2,6-dichloroindophenol sodium]",IC50,[1]; [5],116 ± 39.2 µM
same,"Slope (% Inhibition/Concentration), range",[1]; range among individual rats,0.940-1.36 % Inhibition/Concentration
same,IC50,[1]; [6],78.1 to 160 µM
same,"Slope (% Inhibition/Concentration), mean ± S.D.",[1],1.13 ± 0.174 % Inhibition/Concentration
"CC(=O)CC(c1ccccc1)c1c(O)c2ccccc2oc1=O (stereo not shown) [Warfarin, warfarin]","Slope (% Inhibition/Concentration), range",[1]; range among individual rats,0.637-2.20 % Inhibition/Concentration
same,"IO (percent inhibition when C = 0), mean",[1],8.89 ± 3.77%
same,"IO (percent inhibition when C = 0), mean",[1]; listed as warfarin,8.9%
same,"IO (percent inhibition when C = 0), range","[1]; third fit parameter, range among rats",2.74-13.1%
same,IC50,"[1]; warfarin, logistic fit with IO as third parameter, read-out: IC50 (mean ± S.D.)",6630 ± 2850 µM
same,plasma prothrombin complex activity at the time of sacrifice,[4],~6 % of normal
same,LD50 (may actually be as high as),rats; in rats,10 to 50 mg/kg
same,LD50 (assumed),"rats; intravenously administered, assumed value",0.2 mg/kg
"ClC(Cl)(Cl)Cl [CCl4, carbon tetrachloride]",average turnover time of PCA,[2]; group average,3.27 ± 1.34 h
same,biologic half-life of PCA,[2]; group average,2.27±0.94 hours
same,"kd, average of treated rats",[2]; group average,9.83e-05 ± 5.43e-05 s⁻¹
same,kd (first-order rate constant for degradation of PCA),[2]; listed as OCl4,6.92e-05 s⁻¹ and 0.0001609 s⁻¹ and 6.82e-05 s⁻¹
same,R°Syn (rate of synthesis of PCA),[2]; listed as OCl4,101 %/day and 137 %/day
same,PCA° (steady-state prothrombin complex activity before warfarin),[2]; listed as OCl4,16.9% and 9.9% and 23.4%
same,reduction in R°Syn,[2],approximately 62%
same,Normalized P∞,[3],6.58 dpm ^14 C incorporated/mg prot and 9.86 dpm ^14 C incorporated/mg prot and 9.04 dpm ^14 C incorporated/mg prot
same,V/KM (intrinsic formation rate of carboxylated vitamin K-dependent proteins),[3],0.0798 min⁻¹ and 0.0944 min⁻¹ and 0.1257 min⁻¹
same,reduction in V/KM,[3]; two rats receiving 1.0 ml CCl4/kg,20-30%
"O=C1C=C(Cl)C(=O)c2ccccc21 [Chloro-K3, 2-chloro-1,4-naphthoquinone]",times more potent than warfarin,[1]; in vitro rat hepatic vitamin K-dependent carboxylation system,45 times
same,IC50,[1]; [5],146 ± 62.1 µM
same,"Slope (% Inhibition/Concentration), range",[1]; range among individual rats,0.738-1.55 % Inhibition/Concentration
same,IC50,[1]; [6],100 to 236 µM
same,"Slope (% Inhibition/Concentration), mean ± S.D.",[1],1.20 ± 0.340 % Inhibition/Concentration
